The text below walks through data of ChEMBL document CHEMBL1201862, “PubChem BioAssay data set” (2004).

The structures appear in SMILES notation. Calls of active or inactive are those of the source.

Assay [1] addresses T1, RNA-binding protein pos-1 (Caenorhabditis elegans, UniProt G5EF15).
T1 sequence (G5EF15 whole entry): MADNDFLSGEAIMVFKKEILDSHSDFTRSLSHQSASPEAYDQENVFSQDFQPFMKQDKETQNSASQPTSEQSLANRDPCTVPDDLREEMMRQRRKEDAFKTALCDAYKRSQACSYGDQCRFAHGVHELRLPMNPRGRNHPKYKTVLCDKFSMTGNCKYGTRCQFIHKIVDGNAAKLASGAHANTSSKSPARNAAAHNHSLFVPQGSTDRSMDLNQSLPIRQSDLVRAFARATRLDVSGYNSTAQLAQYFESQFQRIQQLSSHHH
Kind of assay: inhibitors of POS-1/mex-3 RNA binding, dose response, biochemical, fluorescence polarization (AID 1964).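 Note: purified POS-1 fused to maltose binding protein made in E. coli; potency of compounds blocking POS-1 binding to fluorescent RNA.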 For orientation: Fluorescence polarisation rises when a labelled molecule tumbles more slowly, as on binding a larger partner.

Assay [2] in a line: cells. The class given is functional, cell-based.
Assay [3] concerns the target T2, Zinc finger protein mex-5 (Caenorhabditis elegans, UniProt Q9XUB2).
T2 sequence (Q9XUB2 whole entry): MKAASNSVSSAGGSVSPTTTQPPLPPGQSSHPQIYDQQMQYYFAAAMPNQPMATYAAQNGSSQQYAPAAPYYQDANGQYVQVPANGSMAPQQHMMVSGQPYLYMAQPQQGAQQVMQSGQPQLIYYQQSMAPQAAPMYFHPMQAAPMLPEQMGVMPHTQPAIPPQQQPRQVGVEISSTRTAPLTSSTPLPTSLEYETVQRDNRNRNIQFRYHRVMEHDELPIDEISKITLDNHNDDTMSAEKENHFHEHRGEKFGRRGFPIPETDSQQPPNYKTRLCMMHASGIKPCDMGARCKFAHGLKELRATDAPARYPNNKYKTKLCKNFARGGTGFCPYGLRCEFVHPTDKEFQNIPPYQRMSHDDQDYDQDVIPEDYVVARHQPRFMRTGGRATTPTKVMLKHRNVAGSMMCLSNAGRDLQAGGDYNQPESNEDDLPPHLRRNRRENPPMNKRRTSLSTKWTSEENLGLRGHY
Kind of assay: MEX-5/TCR-2 RNA interaction inhibitors, dose response, biochemical, C. elegans, fluorescence polarization (AID 1960).

The target in the next assay is Large T antigen (Simian virus 40, UniProt P03070). The class given is functional, Betapolyomavirus macacae.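 Note: Confirmatory-stage PubChem screen for compounds that inhibit SV40 T antigen.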
Chain of Large T antigen (P03070 whole entry): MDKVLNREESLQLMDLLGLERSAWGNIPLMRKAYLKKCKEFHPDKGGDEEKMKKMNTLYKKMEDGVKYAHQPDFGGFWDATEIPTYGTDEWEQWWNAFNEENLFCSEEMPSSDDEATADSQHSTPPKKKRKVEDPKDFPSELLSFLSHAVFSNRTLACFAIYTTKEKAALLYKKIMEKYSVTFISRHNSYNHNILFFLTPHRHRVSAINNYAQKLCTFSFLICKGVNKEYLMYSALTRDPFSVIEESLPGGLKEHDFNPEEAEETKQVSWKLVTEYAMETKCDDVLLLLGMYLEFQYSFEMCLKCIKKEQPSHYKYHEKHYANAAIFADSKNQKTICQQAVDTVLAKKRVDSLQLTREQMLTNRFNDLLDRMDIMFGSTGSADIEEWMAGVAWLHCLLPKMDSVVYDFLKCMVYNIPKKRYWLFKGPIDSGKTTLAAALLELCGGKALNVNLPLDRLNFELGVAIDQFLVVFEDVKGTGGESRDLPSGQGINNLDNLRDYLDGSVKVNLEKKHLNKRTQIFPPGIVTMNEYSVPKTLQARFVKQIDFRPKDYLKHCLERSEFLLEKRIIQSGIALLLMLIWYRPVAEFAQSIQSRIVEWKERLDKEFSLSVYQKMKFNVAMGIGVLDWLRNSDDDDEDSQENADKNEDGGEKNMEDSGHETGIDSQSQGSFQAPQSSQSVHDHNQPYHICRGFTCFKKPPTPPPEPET
A short description of assay [4]: cells. The class given is functional, cell-based. The source holds these as a separate data set.
Assay [5] addresses FAD-linked sulfhydryl oxidase ALR (Homo sapiens, UniProt P55789). The assay can be described thus: inhibitors of human ALR sulfhydryl oxidase, dose response, biochemical, H2O2 detection, luminescence, cherry-pick (AID 493248).
Assay [6] is described as follows: Shn3 3'UTR reporter inhibitors, dose response, cell-based, Clone20 osteoblasts, firefly luciferase, cherry-picked (AID 624132).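 Note: firefly luciferase luminescence from reporter carrying the Shn3 3'UTR in osteoblasts.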 The class given is functional.
A short description of assay [7]: control 3'UTR Renilla luciferase suppression, dose response, counter-screen for Shn3 inhibitor project, cell-based, Clone20-Shn3RL, cherry-picked (AID 624133). The class given is functional.
Another assay deals with Albumin (Bos taurus, UniProt P02769). Kind of assay: Counterscreen for inhibitors of T-cell receptor (TCR)-CD3 interaction: Fluorescence-based biochemical high throughput dose response assay to identify inhibitors of T-cell receptor (TCR)-CD3 interaction using a TAMRA-labeled BSA probe. The class given is functional. For orientation: Counterscreens check selectivity or assay interference.
Chain of Albumin (P02769 whole entry): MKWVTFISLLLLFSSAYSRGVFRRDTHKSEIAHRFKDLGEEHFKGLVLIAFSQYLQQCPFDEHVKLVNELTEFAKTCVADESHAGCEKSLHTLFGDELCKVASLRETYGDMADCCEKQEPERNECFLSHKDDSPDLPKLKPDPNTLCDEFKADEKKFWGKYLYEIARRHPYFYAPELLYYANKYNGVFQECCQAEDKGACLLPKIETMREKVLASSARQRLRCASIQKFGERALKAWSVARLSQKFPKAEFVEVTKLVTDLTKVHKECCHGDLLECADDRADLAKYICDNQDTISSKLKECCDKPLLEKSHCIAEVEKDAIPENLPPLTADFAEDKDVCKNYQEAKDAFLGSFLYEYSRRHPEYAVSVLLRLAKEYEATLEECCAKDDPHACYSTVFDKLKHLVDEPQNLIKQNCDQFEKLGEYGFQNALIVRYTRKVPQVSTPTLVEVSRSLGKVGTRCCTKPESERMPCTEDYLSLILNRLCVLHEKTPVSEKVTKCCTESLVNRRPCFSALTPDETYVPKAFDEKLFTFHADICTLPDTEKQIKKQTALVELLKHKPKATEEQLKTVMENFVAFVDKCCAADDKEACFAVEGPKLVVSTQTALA

Assay [8] can be described thus: inhibitors of Vif binding to APOBEC3G peptide, primary screen, biochemical, TR-FRET, GST-Vif 1-94, biotin-A3G peptide, dose response retest (AID 1117319).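 Note: TR-FRET signal of purified GST-Vif binding a biotinylated A3G peptide; inhibitors lower the FRET signal by blocking Vif and A3G binding.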 The class given is functional.
The nature of assay [9]: human group III sPLA2 inhibitors, dose response, biochemical, QFRET, IC50 (AID 743457).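 Note: green fluorescence rise as the enzyme cleaves BODIPY PC-A2 in liposomes; potency for inhibition of the enzyme.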
The next assay deals with Kallikrein-7 (Homo sapiens, UniProt P49862). The assay can be described thus: Fluorescence Intensity-based biochemical primary high throughput dose response assay to identify activators of kallikrein-7 (K7) zymogen.
Chain of Kallikrein-7 (P49862 whole entry): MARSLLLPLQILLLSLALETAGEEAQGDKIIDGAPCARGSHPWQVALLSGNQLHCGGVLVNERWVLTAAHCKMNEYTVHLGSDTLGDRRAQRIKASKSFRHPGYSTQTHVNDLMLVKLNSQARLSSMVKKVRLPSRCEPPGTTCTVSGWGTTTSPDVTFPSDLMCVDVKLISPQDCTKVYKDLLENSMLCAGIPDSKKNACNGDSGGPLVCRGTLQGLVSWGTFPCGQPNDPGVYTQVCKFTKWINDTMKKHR
The nature of assay [10]: P. falciparum 3D7-ScDHODH growth inhibitors, dose response, SYBR Green, dry powder samples (AID 1159570).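 Note: parasite growth measured after 72 hours of compound exposure.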 The class given is functional, cell-based.
A short description of assay [11]: HepG2 cell cytotoxicity, dose response, cytotoxicity control, plate reader, dry powder samples (AID 1159569).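 Note: inhibitor potency with signal falling toward the positive control level.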 The class given is functional, cell-based.
Assay [12] can be described thus: P. falciparum Dd2 growth inhibitors, dose response, SYBR Green, cherry-picked samples (AID 1159567). The class given is functional, cell-based.
Assay [13] is described as follows: P. falciparum Dd2 growth inhibitors, dose response, SYBR Green, dry powder samples (AID 1159566).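 Note: potency for growth inhibition with lower SYBR green DNA signal.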 The class given is functional, cell-based.
Assay [14] in a line: P. falciparum ATP4 D1247Y mutant growth inhibitors, dose response, NITD609-resistant line, SYBR Green, dry powder (AID 1159571).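 Note: parasites synchronized at ring stage by sorbitol before testing.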 The class given is functional, cell-based.
Assay [15] can be described thus: THP-1 cell cytotoxicity, dose response, cytotoxicity control for Vif-APOBEC3G degradation inhibitor project, THP-1 cells (AID 1117359). The class given is functional. The conditions noted are these: Human immunodeficiency virus 1, THP-1.
A short description of assay [16]: HepG2 cell cytotoxicity, dose response, cytotoxicity control, cherry-picked samples (AID 1159577). The class given is functional, cell-based.
A further assay concerns the target T3, Protein Tat (Human immunodeficiency virus type 1 group M subtype B (isolate HXB2)(HIV-1), UniProt P04608).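 Note: tat binding to TAR RNA read out by fluorescence polarization.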
T3 sequence (P04608 whole entry): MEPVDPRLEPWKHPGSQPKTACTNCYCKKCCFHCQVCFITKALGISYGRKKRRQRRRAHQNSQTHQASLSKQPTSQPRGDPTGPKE
The class given is functional.

Chain of FAD-linked sulfhydryl oxidase ALR (P55789 whole entry): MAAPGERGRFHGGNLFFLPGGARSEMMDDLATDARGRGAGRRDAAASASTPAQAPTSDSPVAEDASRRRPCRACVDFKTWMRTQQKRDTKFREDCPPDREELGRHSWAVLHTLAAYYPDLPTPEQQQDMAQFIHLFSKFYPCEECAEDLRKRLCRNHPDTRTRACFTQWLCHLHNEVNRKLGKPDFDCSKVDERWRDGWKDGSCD

`Cc1ccn2cc(-c3ccc(O)c(O)c3)nc2c1`: the EC50 (as a rule, the concentration needed to bring the measured effect to its halfway point) in assay [1] was 38 µM (active); in the assay “cells [2]”, > 350 µM (not active); in assay [3], 6.88 µM (active); in the assay “cells [4]” it was 6.58 µM (active). Further, the IC50 (in general, the concentration at which inhibition is half-maximal) was 12.9 µM (active) at Large T antigen and > 94.1 µM (inactive) at Albumin. The AC50 – broadly, the concentration at which the activity in the assay is half-maximal – in assay [5] was 0.558 µM (active); in assay [6], 2.44 µM (active); in assay [7], 13 µM (active).
For `COc1ccc(C(=O)OCC(=O)c2c(N)n(C)c(=O)n(C)c2=O)cc1OC`, the IC50 in assay [8] was > 100 µM (active).
For `O=C(NNC(=O)c1ccc2ccccc2c1O)Nc1ccc(F)cc1`, the IC50 at Albumin was > 94.1 µM (inactive); in [9] it was > 122 µM (inactive).
`CC(=O)Nc1ccc(S(=O)(=O)[N-]c2nc3ccccc3nc2-[n+]2ccc(NC(=O)c3ccccc3)cc2)cc1`: the EC50 on Kallikrein-7 was > 69.5 µM (inactive).
For the compound `C[C@H](CO)N1C[C@H](C)[C@@H](CN(C)C(=O)c2ccccc2F)Oc2ncc(C#Cc3cccc(F)c3)cc2C1=O`, the AC50 in [10] was 3.17 µM (active); in [11], 39.9 µM (active); in assay [12], 1.97 µM (active); in assay [13] it was 1.63 µM (active); in [14], 2.1 µM (active).
In the case of `CCC(C(=O)Nc1cc(C(=O)O)ccc1C)c1ccccc1` (stereo not drawn), in assay [15], the CC50 – broadly, the concentration at which the toxic effect on the cells reaches its halfway point – is > 40 µM (active).
As to `C[C@@H]1CN([C@@H](C)CO)C(=O)Cc2cc(NC(=O)Nc3ccc(C(F)(F)F)cc3)ccc2O[C@H]1CN(C)Cc1ccc(-c2ccccc2)cc1`, the AC50 in [10] is 1.09 µM (active); in [11], 19.3 µM (active); in assay [12] it was 1.8 µM (active); in assay [13], 1.11 µM (active); in [16], 21.4 µM (active); in [14] it was 1.83 µM (active).
Regarding `COc1ccc(S(=O)(=O)Cc2ccc(C(=O)N3CCN(c4ccccc4)CC3)o2)cc1`, in [5], the AC50 is 19.1 µM (active). The IC50 (on Protein Tat; in assay [8]) was > 100 µM (active) throughout.
